pIC50: −log10 of the molar value.
Target: T1, Recombinant human His-tagged Trim24-PHD-bromodomain (Homo sapiens, UniProt O15164)
T1 construct: Recombinant human His-tagged Trim24-PHD-bromodomain (produced in-house); made in house
T1 sequence (O15164 824-1006 limits assumed): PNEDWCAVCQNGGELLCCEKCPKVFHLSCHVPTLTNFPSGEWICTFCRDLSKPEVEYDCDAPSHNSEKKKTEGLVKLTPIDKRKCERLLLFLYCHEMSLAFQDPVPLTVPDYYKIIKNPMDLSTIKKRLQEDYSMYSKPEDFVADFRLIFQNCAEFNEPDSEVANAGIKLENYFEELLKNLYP
Experiment: Trim24 AlphaScreen Assay
Format: binding
Settings: 5 nM Trim24 protein, 15 nM biotinylated H3K23ac (1-33aa) peptide
Method in brief: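 His-tagged Trim24-PHD-bromodomain, biotinylated H3K23ac (1-33aa) peptide and compound incubated 1 h at room temperature in 50 mM Hepes pH 7.5, 100 mM NaCl, 0.12 mM Triton X-100.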

Row | SMILES | pIC50
1 | Cc1nn(C)cc1S(=O)(=O)Nc1cc2c(cc1Oc1cccc(OCc3ccccc3)c1)n(C)c(=O)n2C [Example 23, N-(6-(3-(benzyloxy)phenoxy)-1,3-dimethyl-2-oxo-2,3-dihydro-1H-benzo[d]imidazol-5-yl)-1,3-dimethyl-1H-pyrazole-4-sulfonamide] | 6.00 to 7.00
2 | CCCOc1cccc(Oc2cc3c(cc2NS(=O)(=O)CCOC)n(C)c(=O)n3C)c1 [Example 85, N-(1,3-dimethyl-2-oxo-6-(3-propoxyphenoxy)-2,3-dihydro-1H-benzo[d]imidazol-5-yl)-2-methoxyethane-1-sulfonamide] | 6.00 to 7.00
3 | COCCCOc1cc(C#N)cc(Oc2cc3c(cc2NS(=O)(=O)c2cn(C)c(C)n2)n(C)c(=O)n3C)c1 [Example 120, N-(6-(3-cyano-5-(3-methoxypropoxy)phenoxy)-1,3-dimethyl-2-oxo-2,3-dihydro-1H-benzo[d]imidazol-5-yl)-1,2-dimethyl-1H-imidazole-4-sulfonamide] | 6.00 to 7.00
4 | Cn1c(=O)n(C)c2cc(Oc3cccc(OCc4ccccc4)c3)c(NS(=O)(=O)c3ccccc3)cc21 [Example 13, N-(6-(3-(benzyloxy)phenoxy)-1,3-dimethyl-2-oxo-2,3-dihydro-1H-benzo[d]imidazol-5-yl)benzenesulfonamide] | < 6.00
5 | CCCOc1cc(Oc2cc3c(cc2NS(=O)(=O)c2cn(C)cn2)n(C)c(=O)n3C)ccc1Cl [Example 112, N-(6-(4-chloro-3-propoxyphenoxy)-1,3-dimethyl-2-oxo-2,3-dihydro-1H-benzo[d]imidazol-5-yl)-1-methyl-1H-imidazole-4-sulfonamide] | 6.00 to 7.00
6 | CCCOc1cccc(Oc2cc3c(cc2NS(=O)(=O)c2cccc4c2OCCO4)n(C)c(=O)n3C)c1 [Example 172, N-(1,3-dimethyl-2-oxo-6-(3-propoxyphenoxy)-2,3-dihydro-1H-benzo[d]imidazol-5-yl)-2,3-dihydrobenzo[b][1,4]dioxine-5-sulfonamide] | 6.00 to 7.00
7 | COc1ccc(S(=O)(=O)Nc2cc3c(cc2Oc2cccc(OCc4ccccc4)c2)n(C)c(=O)n3C)cc1OC [Example 1, N-(6-(3-(benzyloxy)phenoxy)-1,3-dimethyl-2-oxo-2,3-dihydro-1H-benzo[d]imidazol-5-yl)-3,4-dimethoxybenzenesulfonamide] | 6.00 to 7.00
8 | Cc1nc(S(=O)(=O)Nc2cc3c(cc2Oc2cccc(OCCC(C)C)c2)n(C)c(=O)n3C)cn1C [Example 4, N-(6-(3-(isopentyloxy)phenoxy)-1,3-dimethyl-2-oxo-2,3-dihydro-1H-benzo[d]imidazol-5-yl)-1,2-dimethyl-1H-imidazole-4-sulfonamide] | 6.00 to 7.00
9 | CCCOc1cc(OCCCCN)cc(Oc2cc3c(cc2NS(=O)(=O)c2ccccn2)n(C)c(=O)n3C)c1 [Example 198, N-(6-(3-(4-aminobutoxy)-5-propoxyphenoxy)-1,3-dimethyl-2-oxo-2,3-dihydro-1H-benzo[d]imidazol-5-yl)pyridine-2-sulfonamide] | 7.00 to 8.00
10 | Cc1ccccc1S(=O)(=O)Nc1cc2c(cc1Oc1cccc(OCc3ccccc3)c1)n(C)c(=O)n2C [Example 35, N-(6-(3-(benzyloxy)phenoxy)-1,3-dimethyl-2-oxo-2,3-dihydro-1H-benzo[d]imidazol-5-yl)-2-methylbenzenesulfonamide] | < 6.00
11 | Cc1c(S(=O)(=O)Nc2cc3c(cc2Oc2cc(OCCCCN(C)C)cc(OCC(F)(F)F)c2)n(C)c(=O)n3C)cnn1C [Example 212, N-(6-(3-(4-(dimethylamino)butoxy)-5-(2,2,2-trifluoroethoxy)phenoxy)-1,3-dimethyl-2-oxo-2,3-dihydro-1H-benzo[d]imidazol-5-yl)-1,5-dimethyl-1H-pyrazole-4-sulfonamide] | 8.00 to 9.00
12 | CCCOc1cc(OCCCOC)cc(Oc2cc3c(cc2NS(=O)(=O)c2ccc(OC(F)F)cc2)n(C)c(=O)n3C)c1 [Example 167, 4-(difluoromethoxy)-N-(6-(3-(3-methoxypropoxy)-5-propoxyphenoxy)-1,3-dimethyl-2-oxo-2,3-dihydro-1H-benzo[d]imidazol-5-yl)benzenesulfonamide] | 6.00 to 7.00
13 | Cn1cnc(S(=O)(=O)Nc2cc3c(cc2Oc2cccc(OCCCC(=O)O)c2)n(C)c(=O)n3C)c1 [Example 227, 4-(3-(1,3-dimethyl-6-(1-methyl-1H-imidazole-4-sulfonamido)-2-oxo-2,3-dihydro-1H-benzo[d]imidazol-5-yloxy)phenoxy)butanoic acid] | < 6.00
14 | Cn1c(=O)n(C)c2cc(Oc3cccc(OCc4ccccc4)c3)c(NS(=O)(=O)c3c[nH]cn3)cc21 [Example 78, N-(6-(3-(benzyloxy)phenoxy)-1,3-dimethyl-2-oxo-2,3-dihydro-1H-benzo[d]imidazol-5-yl)-1H-imidazole-4-sulfonamide] | 6.00 to 7.00
15 | C=CCOc1cccc(S(=O)(=O)Nc2cc3c(cc2Oc2cccc(OCC(F)(F)F)c2)n(C)c(=O)n3C)c1 [Example 193, 3-(allyloxy)-N-(1,3-dimethyl-2-oxo-6-(3-(2,2,2-trifluoroethoxy)phenoxy)-2,3-dihydro-1H-benzo[d]imidazol-5-yl)benzenesulfonamide] | 6.00 to 7.00
16 | Cn1c(=O)n(C)c2cc(Oc3cccc(OCc4ccccc4)c3)c(NS(=O)(=O)c3ccsc3)cc21 [Example 21, N-(6-(3-(benzyloxy)phenoxy)-1,3-dimethyl-2-oxo-2,3-dihydro-1H-benzo[d]imidazol-5-yl)thiophene-3-sulfonamide] | < 6.00
17 | CCCOc1cc(OCCCOC)cc(Oc2cc3c(cc2NS(=O)(=O)c2cn4c(n2)CCCC4)n(C)c(=O)n3C)c1 [Example 140, N-(6-(3-(3-methoxypropoxy)-5-propoxyphenoxy)-1,3-dimethyl-2-oxo-2,3-dihydro-1H-benzo[d]imidazol-5-yl)-5,6,7,8-tetrahydroimidazo[1,2-a]pyridine-2-sulfonamide] | 7.00 to 8.00

Next, values leading:

Row | pIC50 | SMILES
18 | 7.00 to 8.00 | Cn1c(=O)n(C)c2cc(Oc3cccc(OCC(F)(F)F)c3)c(NS(=O)(=O)c3c[nH]cn3)cc21 [Example 88, N-(1,3-dimethyl-2-oxo-6-(3-(2,2,2-trifluoroethoxy)phenoxy)-2,3-dihydro-1H-benzo[d]imidazol-5-yl)-1H-imidazole-4-sulfonamide]
19 | 7.00 to 8.00 | Cc1nc(S(=O)(=O)Nc2cc3c(cc2Oc2cccc(OCC(F)(F)F)c2)n(C)c(=O)n3C)cn1C [Example 67, N-(1,3-dimethyl-2-oxo-6-(3-(2,2,2-trifluoroethoxy)phenoxy)-2,3-dihydro-1H-benzo[d]imidazol-5-yl)-1,2-dimethyl-1H-imidazole-4-sulfonamide]
20 | 8.00 to 9.00 | Cc1c(S(=O)(=O)Nc2cc3c(cc2Oc2cc(OCCCCCCN)cc(OCC(F)(F)F)c2)n(C)c(=O)n3C)cnn1C [Example 200, N-(6-(3-((6-aminohexyl)oxy)-5-(2,2,2-trifluoroethoxy)phenoxy)-1,3-dimethyl-2-oxo-2,3-dihydro-1H-benzo[d]imidazol-5-yl)-1,5-dimethyl-1H-pyrazole-4-sulfonamide]
21 | 7.00 to 8.00 | Cn1cc(S(=O)(=O)Nc2cc3c(cc2Oc2cccc(OCC4CC4)c2)n(C)c(=O)n3C)cn1 [Example 101, N-(6-(3-(cyclopropylmethoxy)phenoxy)-1,3-dimethyl-2-oxo-2,3-dihydro-1H-benzo[d]imidazol-5-yl)-1-methyl-1H-pyrazole-4-sulfonamide]
22 | 7.00 to 8.00 | CCCOc1cccc(Oc2cc3c(cc2NS(=O)(=O)c2cn(C)cn2)n(C)c(=O)n3C)c1 [Example 83, N-(1,3-dimethyl-2-oxo-6-(3-propoxyphenoxy)-2,3-dihydro-1H-benzo[d]imidazol-5-yl)-1-methyl-1H-imidazole-4-sulfonamide]
23 | 7.00 to 8.00 | CCCOc1cc(OCCCOC)cc(Oc2cc3c(cc2NS(=O)(=O)c2cn(C)c(C)n2)n(C)c(=O)n3C)c1 [Example 94, N-(6-(3-(3-methoxypropoxy)-5-propoxyphenoxy)-1,3-dimethyl-2-oxo-2,3-dihydro-1H-benzo[d]imidazol-5-yl)-1,2-dimethyl-1H-imidazole-4-sulfonamide]
24 | 7.00 to 8.00 | Cn1cc(S(=O)(=O)Nc2cc3c(cc2Oc2cccc(OCC(F)(F)F)c2)n(C)c(=O)n3C)cn1 [Example 72, N-(1,3-dimethyl-2-oxo-6-(3-(2,2,2-trifluoroethoxy)phenoxy)-2,3-dihydro-1H-benzo[d]imidazol-5-yl)-1-methyl-1H-pyrazole-4-sulfonamide]
25 | 7.00 to 8.00 | CCCOc1cc(OCCCCCCN)cc(Oc2cc3c(cc2NS(=O)(=O)c2cccc(C#N)c2)n(C)c(=O)n3C)c1 [Example 190, N-(6-(3-((6-aminohexyl)oxy)-5-propoxyphenoxy)-1,3-dimethyl-2-oxo-2,3-dihydro-1H-benzo[d]imidazol-5-yl)-3-cyanobenzenesulfonamide]
26 | 7.00 to 8.00 | CCCOc1cc(OCCCOC)cc(Oc2cc3c(cc2NS(=O)(=O)c2ccc(OC)c(NC(C)=O)c2)n(C)c(=O)n3C)c1 [Example 159, N-(2-methoxy-5-(N-(6-(3-(3-methoxypropoxy)-5-propoxyphenoxy)-1,3-dimethyl-2-oxo-2,3-dihydro-1H-benzo[d]imidazol-5-yl)sulfamoyl)phenyl)acetamide]
27 | 7.00 to 8.00 | CCCOc1cc(OCCCCCCN(C)C)cc(Oc2cc3c(cc2NS(=O)(=O)c2cn(C)cn2)n(C)c(=O)n3C)c1 [Example 188, N-(6-(3-((6-(dimethylamino)hexyl)oxy)-5-propoxyphenoxy)-1,3-dimethyl-2-oxo-2,3-dihydro-1H-benzo[d]imidazol-5-yl)-1-methyl-1H-imidazole-4-sulfonamide]
28 | 7.00 to 8.00 | COCCCn1cnc(S(=O)(=O)Nc2cc3c(cc2Oc2cccc(OCC(F)(F)F)c2)n(C)c(=O)n3C)c1 [Example 96, N-(1,3-dimethyl-2-oxo-6-(3-(2,2,2-trifluoroethoxy)phenoxy)-2,3-dihydro-1H-benzo[d]imidazol-5-yl)-1-(3-methoxypropyl)-1H-imidazole-4-sulfonamide]

Source: patent US20160060260A1, “BROMODOMAIN INHIBITORS FOR TREATING DISEASE” (Board of Regents, The University of Texas System, priority 2014, published 2016)
